Experimental data from patent publication US20080009418A1, “Selective Inhibitors” (Alchemia LTD., priority 2004, published 2008).

Key:
Human μ-opioid (MOP) = biological target: T1, Human μ-opioid (MOP) (Homo sapiens, UniProt P35372); test: Radioligand binding, human μ-opioid (MOP) membranes, FlashPlate, [3H]-Naloxone; conditions: compound at 10 μM, [3H]-Naloxone
T1 construct: purchased Perkin Elmer Biosignal
Outline: (§1)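 Cloned human receptor membranes were coated onto FlashPlate wells and incubated with radioligand and compound (added from a 0.5 mM DMSO daughter plate) for 1 hour at room temperature in the dark. Scintillation counting gave percent inhibition, with DMSO defining total and reference ligand defining non-specific binding.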

Human Melanocortin (MC4) = biological target: T2, Human Melanocortin (MC4) (Homo sapiens, UniProt P32245); test: Radioligand binding, human melanocortin MC4 membranes, FlashPlate, [125I]-NDP-αMSH; conditions: compound at 10 μM, [125I]-NDP-αMSH
T2 construct: purchased Perkin Elmer Biosignal
T2 sequence (P32245 whole entry): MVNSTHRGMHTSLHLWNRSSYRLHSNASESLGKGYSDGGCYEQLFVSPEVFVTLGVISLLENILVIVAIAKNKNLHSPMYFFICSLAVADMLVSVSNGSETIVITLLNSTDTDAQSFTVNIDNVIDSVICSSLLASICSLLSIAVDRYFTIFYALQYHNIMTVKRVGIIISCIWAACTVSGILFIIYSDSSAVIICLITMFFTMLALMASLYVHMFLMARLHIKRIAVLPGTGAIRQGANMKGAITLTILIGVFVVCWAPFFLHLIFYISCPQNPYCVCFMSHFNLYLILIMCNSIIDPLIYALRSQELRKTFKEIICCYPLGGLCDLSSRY
Outline: as §1

[1] = biological target: T3, Human neuropeptide Y (NPY-Y1) (Homo sapiens, UniProt P25929); test: Radioligand binding, human neuropeptide Y NPY-Y1 membranes, FlashPlate, [125I]-PYY; conditions: compound at 10 μM, [125I]-PYY
T3 construct: purchased Perkin Elmer Biosignal
T3 sequence (P25929 1-384): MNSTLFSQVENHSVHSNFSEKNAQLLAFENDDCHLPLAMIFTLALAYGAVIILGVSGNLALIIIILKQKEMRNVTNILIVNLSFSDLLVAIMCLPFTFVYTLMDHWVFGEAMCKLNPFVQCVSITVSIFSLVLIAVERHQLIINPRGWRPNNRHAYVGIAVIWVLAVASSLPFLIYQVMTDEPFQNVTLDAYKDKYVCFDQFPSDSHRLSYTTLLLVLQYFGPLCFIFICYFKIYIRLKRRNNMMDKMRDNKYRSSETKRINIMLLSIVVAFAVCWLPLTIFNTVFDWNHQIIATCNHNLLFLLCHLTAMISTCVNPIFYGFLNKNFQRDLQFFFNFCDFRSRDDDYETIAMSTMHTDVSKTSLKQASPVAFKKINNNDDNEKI
Outline: as §1

Human δ-opioid (DOP) = biological target: T4, Human δ-opioid (DOP) (Homo sapiens, UniProt P41143); test: Radioligand binding, human δ-opioid (DOP) membranes, FlashPlate, [3H]-Bremazocine; conditions: compound at 10 μM, [3H]-Bremazocine
T4 construct: purchased Perkin Elmer Biosignal
T4 sequence (P41143 whole entry): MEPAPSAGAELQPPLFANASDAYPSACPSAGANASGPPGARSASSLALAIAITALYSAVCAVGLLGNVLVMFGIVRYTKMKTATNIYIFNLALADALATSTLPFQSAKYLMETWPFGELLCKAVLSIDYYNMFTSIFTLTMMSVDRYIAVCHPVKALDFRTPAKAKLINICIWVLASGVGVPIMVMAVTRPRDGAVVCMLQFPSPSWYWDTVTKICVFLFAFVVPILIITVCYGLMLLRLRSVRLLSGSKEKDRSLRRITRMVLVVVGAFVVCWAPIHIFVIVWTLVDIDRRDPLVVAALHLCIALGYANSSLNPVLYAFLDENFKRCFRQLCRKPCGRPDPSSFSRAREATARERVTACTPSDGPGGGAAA
Outline: as §1

Human melanocortin (MC5) = biological target: T5, Human melanocortin (MC5) (Homo sapiens, UniProt P33032); test: Radioligand binding, human melanocortin MC5 membranes, FlashPlate, [125I]-NDP-αMSH; conditions: compound at 10 μM, [125I]-NDP-αMSH
T5 construct: purchased Perkin Elmer Biosignal
T5 sequence (P33032 whole entry): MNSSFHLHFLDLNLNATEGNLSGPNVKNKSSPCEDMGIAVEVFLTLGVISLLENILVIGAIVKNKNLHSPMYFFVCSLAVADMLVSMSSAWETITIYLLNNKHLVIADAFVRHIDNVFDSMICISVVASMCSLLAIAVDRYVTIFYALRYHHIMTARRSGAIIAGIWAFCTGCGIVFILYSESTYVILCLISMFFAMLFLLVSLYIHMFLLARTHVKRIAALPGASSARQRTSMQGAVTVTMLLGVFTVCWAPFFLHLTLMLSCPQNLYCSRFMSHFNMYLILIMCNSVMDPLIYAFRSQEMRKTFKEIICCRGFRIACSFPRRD
Outline: as §1

Human κ-Opioid (KOP) = biological target: T6, Human κ-Opioid (KOP) (Homo sapiens, UniProt P41145); test: Radioligand binding, human κ-opioid (KOP) membranes, filtration, [3H]-Diprenorphine; conditions: compound at 10 μM, [3H]-Diprenorphine
T6 construct: purchased Perkin Elmer Biosignal
T6 sequence (P41145 whole entry): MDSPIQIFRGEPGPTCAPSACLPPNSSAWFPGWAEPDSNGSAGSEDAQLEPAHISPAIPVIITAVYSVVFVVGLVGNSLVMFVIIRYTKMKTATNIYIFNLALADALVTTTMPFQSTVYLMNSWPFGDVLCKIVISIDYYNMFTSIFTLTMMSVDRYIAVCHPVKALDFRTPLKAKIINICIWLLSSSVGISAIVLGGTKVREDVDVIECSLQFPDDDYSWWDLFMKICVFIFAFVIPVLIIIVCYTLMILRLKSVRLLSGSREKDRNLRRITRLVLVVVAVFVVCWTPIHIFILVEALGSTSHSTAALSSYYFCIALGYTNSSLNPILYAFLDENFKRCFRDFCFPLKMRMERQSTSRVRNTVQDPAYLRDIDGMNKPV
Outline: (§2)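 Filtration binding on cloned human receptor membranes (1 Unit/well), [125I]-Substance P for NK1 and [3H]-Diprenorphine for KOP, 1 h at room temperature. Filters PEI-presoaked, washed with cold 50 mM Tris-HCl pH 7.4, counted by scintillation; percent inhibition calculated, reference ligand defining non-specific binding.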

Human opioid (ORL1) = biological target: T7, Human opioid (ORL1) (Homo sapiens, UniProt P41146); test: Radioligand binding, human opioid ORL1 membranes, FlashPlate, [125I]-Nociceptin; conditions: compound at 10 μM, [125I]-Nociceptin
T7 construct: purchased Perkin Elmer Biosignal
T7 sequence (P41146 whole entry): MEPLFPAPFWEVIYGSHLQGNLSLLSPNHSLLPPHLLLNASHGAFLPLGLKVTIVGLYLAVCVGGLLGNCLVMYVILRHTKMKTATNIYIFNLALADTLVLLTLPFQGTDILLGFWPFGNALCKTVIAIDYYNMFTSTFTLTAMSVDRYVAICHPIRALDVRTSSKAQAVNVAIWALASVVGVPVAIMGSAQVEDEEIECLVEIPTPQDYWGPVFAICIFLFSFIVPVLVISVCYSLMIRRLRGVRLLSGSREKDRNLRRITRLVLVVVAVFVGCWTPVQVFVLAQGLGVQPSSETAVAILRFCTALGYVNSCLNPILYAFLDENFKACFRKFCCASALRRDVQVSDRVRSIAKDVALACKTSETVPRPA
Outline: as §1

[2] = biological target: T8, Human melanin-concentrating hormone (MCH1) (Homo sapiens, UniProt Q99705); test: Radioligand binding, human melanin-concentrating hormone MCH1 membranes, FlashPlate, [125I]-S36057; conditions: compound at 10 μM
T8 construct: purchased Perkin Elmer Biosignal
T8 sequence (Q99705 whole entry): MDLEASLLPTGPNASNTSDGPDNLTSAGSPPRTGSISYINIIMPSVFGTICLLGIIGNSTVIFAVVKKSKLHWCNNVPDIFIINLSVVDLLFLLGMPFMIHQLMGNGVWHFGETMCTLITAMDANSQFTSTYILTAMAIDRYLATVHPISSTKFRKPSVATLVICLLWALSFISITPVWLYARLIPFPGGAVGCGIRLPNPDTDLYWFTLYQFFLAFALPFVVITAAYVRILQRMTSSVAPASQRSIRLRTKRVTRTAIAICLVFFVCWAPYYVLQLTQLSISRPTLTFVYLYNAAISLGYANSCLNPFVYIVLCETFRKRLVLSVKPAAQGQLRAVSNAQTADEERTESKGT
Outline: as §1

Mouse urotensin (mUR2) = biological target: T9, Mouse urotensin (mUR2) (Mus musculus, UniProt Q8VIH9); test: Radioligand binding, mouse urotensin mUR2 membranes, FlashPlate, [125I]-Urotensin II; conditions: compound at 10 μM, [125I]-Urotensin II
T9 construct: purchased Perkin Elmer Biosignal
T9 sequence (Q8VIH9 1-385): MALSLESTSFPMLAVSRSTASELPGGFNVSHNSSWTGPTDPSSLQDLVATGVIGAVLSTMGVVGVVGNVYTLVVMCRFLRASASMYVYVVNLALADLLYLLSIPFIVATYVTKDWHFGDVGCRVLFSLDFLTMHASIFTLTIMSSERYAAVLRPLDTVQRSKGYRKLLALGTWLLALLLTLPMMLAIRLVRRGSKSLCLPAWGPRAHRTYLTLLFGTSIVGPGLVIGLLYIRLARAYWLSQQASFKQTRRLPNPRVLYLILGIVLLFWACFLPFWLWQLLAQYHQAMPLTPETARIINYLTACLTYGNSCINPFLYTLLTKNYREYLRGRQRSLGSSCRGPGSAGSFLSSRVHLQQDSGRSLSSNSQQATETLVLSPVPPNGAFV
Outline: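 Cloned mouse urotensin (mUR2) receptor membranes from Perkin Elmer Biosignal were immobilized in FlashPlate microplates using a proprietary coating. Each well got 19.5 μl buffer, then 0.5 μl of DMSO, reference ligand, or compound. Adding 5 μl of [125I]-Urotensin II, diluted to 5× final concentration in binding buffer, started binding. Plates were sealed with TopSeal-A and incubated 1 hour at room temperature in the dark. Wells were counted for 30 seconds each on a TopCount after a 60-second delay, and percentage inhibition was calculated.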

Human neurokinin (NK1) = biological target: T10, Human neurokinin (NK1) (Homo sapiens, UniProt P25103); test: Radioligand binding, human neurokinin NK1 membranes, filtration, [125I]-Substance P; conditions: compound at 10 μM, [125I]-Substance P
T10 construct: purchased Perkin Elmer Biosignal
T10 sequence (P25103 whole entry): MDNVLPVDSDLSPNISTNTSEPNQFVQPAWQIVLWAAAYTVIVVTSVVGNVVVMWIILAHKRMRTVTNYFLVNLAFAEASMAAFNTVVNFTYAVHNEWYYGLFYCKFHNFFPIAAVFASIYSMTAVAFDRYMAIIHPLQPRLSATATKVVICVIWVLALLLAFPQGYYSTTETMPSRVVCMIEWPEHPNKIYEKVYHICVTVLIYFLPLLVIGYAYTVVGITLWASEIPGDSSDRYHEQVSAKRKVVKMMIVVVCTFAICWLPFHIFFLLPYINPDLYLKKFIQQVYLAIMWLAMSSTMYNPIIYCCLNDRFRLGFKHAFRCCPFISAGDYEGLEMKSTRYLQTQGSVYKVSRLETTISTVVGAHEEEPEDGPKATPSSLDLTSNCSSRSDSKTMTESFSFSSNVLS
Outline: as §2

Human Melanocortin (MC3) = biological target: T11, Human Melanocortin (MC3) (Homo sapiens, UniProt P41968); test: Radioligand binding, human melanocortin MC3 membranes, FlashPlate, [125I]-NDP-αMSH; conditions: compound at 10 μM, [125I]-NDP-αMSH
T11 construct: purchased Perkin Elmer Biosignal
T11 sequence (P41968 whole entry): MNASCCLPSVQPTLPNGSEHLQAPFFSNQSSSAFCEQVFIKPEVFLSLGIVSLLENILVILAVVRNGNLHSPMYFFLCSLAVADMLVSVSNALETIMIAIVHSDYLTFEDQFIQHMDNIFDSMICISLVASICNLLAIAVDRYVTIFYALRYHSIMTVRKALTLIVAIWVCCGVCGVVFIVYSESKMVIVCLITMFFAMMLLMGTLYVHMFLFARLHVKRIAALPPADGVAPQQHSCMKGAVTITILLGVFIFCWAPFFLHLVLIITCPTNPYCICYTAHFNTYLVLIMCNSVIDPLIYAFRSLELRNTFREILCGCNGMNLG
Outline: as §1

T1 sequence (P35372 whole entry): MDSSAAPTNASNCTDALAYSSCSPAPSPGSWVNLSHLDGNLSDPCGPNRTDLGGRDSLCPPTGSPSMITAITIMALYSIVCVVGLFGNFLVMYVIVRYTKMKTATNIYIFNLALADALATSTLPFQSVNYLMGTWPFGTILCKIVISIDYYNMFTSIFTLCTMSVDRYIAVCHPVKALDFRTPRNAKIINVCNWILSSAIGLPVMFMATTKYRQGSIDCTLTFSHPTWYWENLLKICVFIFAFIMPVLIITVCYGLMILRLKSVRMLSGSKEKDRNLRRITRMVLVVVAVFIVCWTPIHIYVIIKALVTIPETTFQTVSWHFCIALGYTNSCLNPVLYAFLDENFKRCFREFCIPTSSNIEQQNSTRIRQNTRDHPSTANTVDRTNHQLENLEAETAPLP

Compound	A7: inhibition of radioligand binding (Human μ-opioid (MOP); FlashPlate)	A4: inhibition of radioligand binding (Human Melanocortin (MC4); FlashPlate)	A9: inhibition of radioligand binding ([1]; FlashPlate)	A1: inhibition of radioligand binding (Human δ-opioid (DOP); FlashPlate)	A5: inhibition of radioligand binding (Human melanocortin (MC5); FlashPlate)	A2: inhibition of radioligand binding (Human κ-Opioid (KOP); filtration)	A10: inhibition of radioligand binding (Human opioid (ORL1); FlashPlate)	A6: inhibition of radioligand binding ([2]; [125I]-S36057, FlashPlate)	A11: inhibition of radioligand binding (Mouse urotensin (mUR2); FlashPlate)	A8: inhibition of radioligand binding (Human neurokinin (NK1); filtration)	A3: inhibition of radioligand binding (Human Melanocortin (MC3); FlashPlate)	other results
COCC1OC(OCc2ccc(Cl)cc2)C(NC(=O)CNC(=N)N)C(OCc2ccc(Cl)cc2)C1O (stereo not shown) [compound 200]	− (“−” indicates less than 50% inhibition at 10 μM)	+ (“+” indicates greater than 50% inhibition at 10 μM)	− (“−” indicates less than 50% inhibition at 10 μM)	− (“−” indicates less than 50% inhibition at 10 μM)	+ (“+” indicates greater than 50% inhibition at 10 μM)	− (“−” indicates less than 50% inhibition at 10 μM)	− (“−” indicates less than 50% inhibition at 10 μM)	− (“−” indicates less than 50% inhibition at 10 μM)	− (“−” indicates less than 50% inhibition at 10 μM)	+ (“+” indicates greater than 50% inhibition at 10 μM)	+ (“+” indicates greater than 50% inhibition at 10 μM)	–
N=C(N)NCC(=O)NC1C(OCc2ccc(Cl)cc2)OC(COCc2ccc3ccccc3c2)C(O)C1OCc1ccc(Cl)cc1 (single isomer, unassigned) [compound 508]	–	–	–	–	–	–	–	–	–	–	–	A7: inhibition of radioligand binding, human μ-opioid (MOP) (Human μ-opioid (MOP)): − (“−” indicates less than 50% inhibition at 10 μM); A4: inhibition of radioligand binding, human melanocortin (MC4) (Human Melanocortin (MC4)): + (“+” indicates greater than 50% inhibition at 10 μM); A9: inhibition of radioligand binding, human neuropeptide Y (NPY-Y1) [1]: − (“−” indicates less than 50% inhibition at 10 μM); A1: inhibition of radioligand binding, human δ-opioid (DOP) (Human δ-opioid (DOP)): − (“−” indicates less than 50% inhibition at 10 μM); A5: inhibition of radioligand binding, human melanocortin (MC5) (Human melanocortin (MC5)): + (“+” indicates greater than 50% inhibition at 10 μM); A2: inhibition of radioligand binding, human κ-opioid (KOP) (Human κ-Opioid (KOP); 10 µM): + (“+” indicates greater than 50% inhibition at 10 μM); A10: inhibition of radioligand binding, human opioid (ORL1) (Human opioid (ORL1)): + (“+” indicates greater than 50% inhibition at 10 μM); A6: inhibition of radioligand binding, human melanin-concentrating hormone (MCH1) ([2]; [125I]-S36057): + (“+” indicates greater than 50% inhibition at 10 μM); A11: inhibition of radioligand binding, mouse urotensin (mUR2) (Mouse urotensin (mUR2)): − (“−” indicates less than 50% inhibition at 10 μM); A8: inhibition of radioligand binding, human neurokinin (NK1) (Human neurokinin (NK1)): + (“+” indicates greater than 50% inhibition at 10 μM); A3: inhibition of radioligand binding, human melanocortin (MC3) (Human Melanocortin (MC3); 10 µM): + (“+” indicates greater than 50% inhibition at 10 μM)
NCCC(=O)NC1C(OCc2ccc3ccccc3c2)OC(COCc2ccccc2)C(O)C1OCc1ccccc1 (stereo not shown) [compound 451]	–	–	–	–	–	–	–	–	–	–	–	A7: inhibition of radioligand binding (Human μ-opioid (MOP); human MOP membranes): − (“−” indicates less than 50% inhibition at 10 μM); A4: inhibition of radioligand binding (Human Melanocortin (MC4); human MC4 membranes): + (“+” indicates greater than 50% inhibition at 10 μM); A9: inhibition of radioligand binding ([1]; human NPY-Y1 membranes): − (“−” indicates less than 50% inhibition at 10 μM); A1: inhibition of radioligand binding (Human δ-opioid (DOP); human DOP membranes): − (“−” indicates less than 50% inhibition at 10 μM); A5: inhibition of radioligand binding (Human melanocortin (MC5); human MC5 membranes, 10 µM): − (“−” indicates less than 50% inhibition at 10 μM); A2: inhibition of radioligand binding (Human κ-Opioid (KOP); human KOP membranes): − (“−” indicates less than 50% inhibition at 10 μM); A10: inhibition of radioligand binding (Human opioid (ORL1); human ORL1 membranes): − (“−” indicates less than 50% inhibition at 10 μM); A6: inhibition of radioligand binding ([2]; [125I]-S36057, human MCH1 membranes): − (“−” indicates less than 50% inhibition at 10 μM); A11: inhibition of radioligand binding (Mouse urotensin (mUR2); mouse mUR2 membranes): − (“−” indicates less than 50% inhibition at 10 μM); A8: inhibition of radioligand binding (Human neurokinin (NK1); human NK1 membranes): + (“+” indicates greater than 50% inhibition at 10 μM); A3: inhibition of radioligand binding (Human Melanocortin (MC3); human MC3 membranes): − (“−” indicates less than 50% inhibition at 10 μM)
CSC1OC(COCc2ccccc2)C(O)C(OCc2ccccc2)C1NC(=O)CCCNC(=N)N (stereo not shown) [compound 252]	− (“−” indicates less than 50% inhibition at 10 μM)	− (“−” indicates less than 50% inhibition at 10 μM)	− (“−” indicates less than 50% inhibition at 10 μM)	− (“−” indicates less than 50% inhibition at 10 μM)	− (“−” indicates less than 50% inhibition at 10 μM)	− (“−” indicates less than 50% inhibition at 10 μM)	− (“−” indicates less than 50% inhibition at 10 μM)	− (“−” indicates less than 50% inhibition at 10 μM)	− (“−” indicates less than 50% inhibition at 10 μM)	+ (“+” indicates greater than 50% inhibition at 10 μM)	− (“−” indicates less than 50% inhibition at 10 μM)	–
COCC1OC(OCc2ccc3ccccc3c2)C(NC(=O)CN)C(OCc2ccc(-c3ccccc3)cc2)C1O (stereo not shown) [compound 241]	− (“−” indicates less than 50% inhibition at 10 μM)	+ (“+” indicates greater than 50% inhibition at 10 μM)	− (“−” indicates less than 50% inhibition at 10 μM)	− (“−” indicates less than 50% inhibition at 10 μM)	+ (“+” indicates greater than 50% inhibition at 10 μM)	− (“−” indicates less than 50% inhibition at 10 μM)	− (“−” indicates less than 50% inhibition at 10 μM)	− (“−” indicates less than 50% inhibition at 10 μM)	− (“−” indicates less than 50% inhibition at 10 μM)	+ (“+” indicates greater than 50% inhibition at 10 μM)	− (“−” indicates less than 50% inhibition at 10 μM)	–
